Measured values published in paper PMC5147891 (PLoS ONE, 2016).
Like-named read-outs stand apart in the source and are kept apart here. Marks after values point to notes of the source that are not given here.

Columns and labels:
hCB1 receptors [1] = target: T1, hCB1 receptors (Homo sapiens, UniProt P21554); test: Antagonism of CP-55,940 inhibition of AC activity in intact CHO-hCB1 cells; type: cell-based
Protocol: (§1) After overnight seeding into 24-well plates and pre-incubation of cells with [^3H]adenine for 3–5 hr at 37°C as described above, media was removed and the indicated concentration of the SERM to be tested was added to all wells of the 24-well plate. […] Reactions were terminated and [^3H]cAMP isolated as described above.
(§2) Data presented are expressed as mean ± standard error of the mean (S.E.M.) for a minimum of three experiments, each performed in triplicate. GraphPad Prism version 6.0f (GraphPad Software Inc.) was used for all curve-fitting and statistical analyses. Non-linear regression for one-site competition was used to determine the IC50 for competition receptor binding. IC50 values were subsequently converted to Ki values (a measure of receptor affinity) by the Cheng-Prusoff equation [31]. Non-linear regression was also used to analyze concentration-effect curves to determine the EC50 or IC50 (measures of potency) and Emax or Imax (measures of efficacy) for GTPγS binding and adenylyl cyclase experiments, respectively. All dissociation constants and measurements of potency were converted to pKi, pKB, pEC50, or pIC50 values by taking the negative log of each value so that parametric tests could be used for statistical comparisons. To compare three or more groups, statistical significance of the data was determined by a one-way ANOVA, followed by post hoc comparisons using a Tukey's or Dunnett's test. To compare two groups, the non-paired Student's t-test was used.

hCB1 receptors [2] = target: T1, hCB1 receptors; test: Competition receptor binding with [3H]CP-55,940, CHO-hCB1 membranes; settings: for Ki: [3H]CP-55,940 binding, CHO-hCB1, 0.2 nM [3H]CP-55,940, CHO-hCB1 membranes; for Selectivity (CB1/CB2): ratio hCB1-Ki/hCB2-Ki
Protocol: (§3) CHO-hCB1, CHO-hCB2 and CHO-hMOR cells were homogenized individually with 10 complete strokes utilizing a 7ml Dounce glass homogenizer in an ice-cold buffer containing 50 mM HEPES pH 7.4, 3 mM MgCl2, and 1 mM EDTA as described previously. The homogenized samples were then centrifuged at 40,000 × g for 10 min at 4°C. Supernatants were discarded; the pellets re-suspended in the buffer, homogenized again, and centrifuged similarly twice more. After the final centrifugation step, supernatants were discarded and pellets were re-suspended in ice-cold 50 mM HEPES, pH 7.4 to achieve an approximate protein concentration of 10 mg/ml. Membrane homogenates were divided into aliquots and stored at −80°C for future use. A small aliquot of each membrane preparation was removed prior to freezing and the protein concentration was determined using BCA Protein Assay (Thermo Fisher Scientific, Waltham, MA).
(§4) Competition receptor binding was performed as reported earlier. […] The total volume of the incubation mixture was 1 ml. All reactions were mixed and allowed to reach equilibrium binding by incubation at room temperature for 90 min. […] Binding was terminated by rapid vacuum filtration through glass fiber filters (Brandel, Gaithersburg, MD), followed by four 5 ml washes of ice-cold 50 mM Tris-HCl (pH 7.4) buffer containing 0.1% bovine serum albumin. Four ml of scintiverse scintillation fluid (Fisher Scientific, Waltham, MA) was added to the filters and the amount of radioactivity was quantified 24 hr later utilizing liquid scintillation spectrophotometry.
as §2

hCB2 receptors [3] = target: T2, hCB2 receptors (Homo sapiens, UniProt P34972); test: Competition receptor binding with [3H]CP-55,940, CHO-hCB2 membranes; settings: [3H]CP-55,940 binding, CHO-hCB2, 0.2 nM [3H]CP-55,940, CHO-hCB2 membranes
T2 construct: expressed in transfected cells
T2 sequence (P34972 whole entry): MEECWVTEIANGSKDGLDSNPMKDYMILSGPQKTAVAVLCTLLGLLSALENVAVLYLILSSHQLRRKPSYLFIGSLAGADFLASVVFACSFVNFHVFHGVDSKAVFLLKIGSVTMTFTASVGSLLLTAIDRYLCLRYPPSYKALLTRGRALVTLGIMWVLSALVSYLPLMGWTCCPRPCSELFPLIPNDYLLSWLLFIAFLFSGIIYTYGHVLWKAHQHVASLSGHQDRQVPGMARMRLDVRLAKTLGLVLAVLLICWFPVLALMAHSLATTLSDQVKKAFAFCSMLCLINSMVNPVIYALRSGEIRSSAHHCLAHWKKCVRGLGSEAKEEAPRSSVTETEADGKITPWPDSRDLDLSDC
Protocol: as §3, §4, §2

hCB2 receptors [4] = target: T2, hCB2 receptors; test: Antagonism of CP-55,940 inhibition of AC activity in intact CHO-hCB2 cells; type: cell-based
Protocol: as §1, §2

hCB2 receptors [5] = target: T2, hCB2 receptors; test: Forskolin-stimulated intracellular [3H]cAMP in intact CHO-hCB2 cells; type: cell-based; settings: for EMAX, intracellular [3H]cAMP: forskolin-stimulated cAMP; for EMAX, intracellular [3H]cAMP / EC50: values only approximate
Protocol: CHO-hCB1, CHO-hCB2, or CHO-hMOR cells were plated separately in normal culture media into 24-well plates at a density of 6 × 10^6 cells/plate and incubated overnight at 37°C in 5% CO2. As previously described, the following day culture media was removed from each well and replaced with 500 μl pre-incubation mixture containing either HAM’s F-12 K (CHO-hCB1) or DMEM (CHO-hCB2 and CHO-hMOR) with 0.9% NaCl, 500 μM 3-isobutyl-1-methylxathine (IBMX) and 2 μCi/well [^3H]adenine. Cells were incubated for 3–5 hr at 37°C. The pre-incubation mix was removed and indicated concentrations of drugs were added to the individual wells for 15 min at 37°C in a Krebs-Ringer-HEPES solution (10 mM HEPES, 110mM NaCl, 25mM Glucose, 55mM Sucrose, 5mM KCl, 1mM MgCl2, 1.8 mM CaCl2, pH 7.4) containing IBMX, and 10 μM forskolin. Reactions were terminated by adding 50 μl 2.2N HCl and [^3H]cAMP was isolated by employing alumina column chromatography. Radioactivity contained in 4 ml of the final column eluate was counted by a Packard-Tri-carb 2100/TR liquid scintillation counter after adding 10 ml of liquid scintillation cocktail.
To determine if modulation of adenylyl cyclase activity by SERMs was mediated through CB2 receptors coupling to Gi/o proteins, additional cAMP assays were conducted following overnight treatment with pertussis toxin as described elsewhere. Briefly, CHO-hCB2 cells were seeded into 24-well plates as described above in normal culture media containing 100 ng/ml of pertussis toxin and incubated overnight at 37°C. Pertussis toxin-treated media was removed and measurement of intracellular [^3H]cAMP levels following indicated SERM treatments was conducted as described above.
as §2

ERs = settings: ref [23], [24]; cited from earlier work
hCB2 receptors [6] = target: T2, hCB2 receptors; test: [35S]GTPγS binding (G-protein activity), CHO-hCB2 membranes; type: biochemical; settings: 10 μM
Protocol: as §3
The GTPγS binding assay to measure G-protein activation was performed as previously described. Briefly, in a total volume of 1 ml, 25 μg of CHO-hCB2, 50 μg of CHO-hCB1-Rx or 50 μg of CHO-hMOR membranes homogenates were added to each reaction mixture containing 0.1 nM [^35S]GTPγS, 20 mM HEPES, 10 mM MgCl2, 100 mM NaCl, 10 μM GDP, 0.1% bovine serum albumin and the indicated concentrations of ligand to be examined. After mixing, reaction mixtures were incubated at 30°C for 30 min. […] Nonspecific binding was defined by the amount of radioactivity remaining in the presence of 10 μM non-radiolabeled GTPγS. […] Four ml of scintiverse scintillation fluid (Fisher Scientific, Waltham, MA) was added to the filters and the amount of radioactivity was quantified 24 hr later utilizing liquid scintillation spectrophotometry.
Data presented are expressed as mean ± standard error of the mean (S.E.M.) for a minimum of three experiments, each performed in triplicate. […] To compare three or more groups, statistical significance of the data was determined by a one-way ANOVA, followed by post hoc comparisons using a Tukey's or Dunnett's test. […]

hCB1 receptors [7] = target: T1, hCB1 receptors; test: [35S]GTPγS binding (G-protein activity), CHO-hCB1 membranes; type: biochemical; settings: 10 μM
Protocol: as §3
The GTPγS binding assay to measure G-protein activation was performed as previously described. Briefly, in a total volume of 1 ml, 25 μg of CHO-hCB2, 50 μg of CHO-hCB1-Rx or 50 μg of CHO-hMOR membranes homogenates were added to each reaction mixture containing 0.1 nM [^35S]GTPγS, 20 mM HEPES, 10 mM MgCl2, 100 mM NaCl, 10 μM GDP, 0.1% bovine serum albumin and the indicated concentrations of ligand to be examined. After mixing, reaction mixtures were incubated at 30°C for 30 min. […] Nonspecific binding was defined by the amount of radioactivity remaining in the presence of 10 μM non-radiolabeled GTPγS. Reactions were terminated by rapid vacuum filtration through glass fiber filters followed by four washes with ice cold 50 mM HEPES (pH 7.4) containing 0.1% bovine serum albumin. Four ml of scintiverse scintillation fluid (Fisher Scientific, Waltham, MA) was added to the filters and the amount of radioactivity was quantified 24 hr later utilizing liquid scintillation spectrophotometry.
as §2, with “All dissociation constants and measurements of potency were converted to pKi, pKB, pEC50, or pIC50 values by taking the negative log of each value so that parametric tests could be used for statistical comparisons.” left out, “To compare two groups, the non-paired Student's t-test was used.” left out

[8] = increase of forskolin-stimulated cAMP

T1 sequence (P21554 whole entry): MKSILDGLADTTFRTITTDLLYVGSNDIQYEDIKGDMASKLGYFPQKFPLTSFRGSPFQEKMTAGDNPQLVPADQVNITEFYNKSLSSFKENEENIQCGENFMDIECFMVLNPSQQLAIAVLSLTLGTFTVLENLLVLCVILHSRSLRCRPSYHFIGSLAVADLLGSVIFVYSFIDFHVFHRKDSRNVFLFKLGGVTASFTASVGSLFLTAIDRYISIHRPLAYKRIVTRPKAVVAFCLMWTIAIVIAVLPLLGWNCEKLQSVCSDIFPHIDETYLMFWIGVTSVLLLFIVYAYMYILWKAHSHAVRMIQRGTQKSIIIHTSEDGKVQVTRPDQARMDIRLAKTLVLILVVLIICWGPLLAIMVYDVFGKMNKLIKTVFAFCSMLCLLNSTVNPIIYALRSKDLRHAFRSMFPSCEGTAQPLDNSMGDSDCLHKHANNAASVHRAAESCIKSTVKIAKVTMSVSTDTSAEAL

SMILES | Type of antagonism of CP-55,940 (hCB1 receptors [1]; CHO-hCB1 cells) | Kb (hCB1 receptors [1]; read-out: Kb (antagonist dissociation constant)) [nM] | Ki (hCB1 receptors [2]) [nM] | Selectivity (CB1/CB2) (hCB1 receptors [2]) | Ki (hCB2 receptors [3]) [nM] | Type of antagonism of CP-55,940 (hCB2 receptors [4]) | Shift-to-the-right in potency (IC50) of CP-55,940 (hCB2 receptors [4]; Z-End 30 μM) [fold] | EMAX, intracellular [3H]cAMP (hCB2 receptors [5]) | EC50 (hCB2 receptors [5]; [8]) [nM] | Functional activity at ERs (ERs) | IMAX, decrease in basal G-protein activity ([35S]GTPγS binding) (hCB2 receptors [6]) [%] | Effect on basal [35S]GTPγS binding (hCB1 receptors [7]) | IMAX of CP-55,940, intracellular [3H]cAMP (hCB2 receptors [4]; CP-55,940 alone or after pre-incubation with AM-630 1 μM, Z-Tam 10 μM, Z-4OHT 10 μM, Z-End 30 μM) | pKb (hCB2 receptors [4]; against CP-55,940, AM-630 1 μM, Z-Tam 10 μM, Z-4OHT 10 μM) | Kb (hCB2 receptors [4]; against CP-55,940, AM-630 1 μM, Z-Tam 10 μM, Z-4OHT 10 μM, listed as +AM-630, read-out: Kb (antagonist dissociation constant)) [nM] | Kb (hCB2 receptors [4]; against CP-55,940, AM-630 1 μM, Z-Tam 10 μM, Z-4OHT 10 μM, read-out: Kb (antagonist dissociation constant)) [nM] | pEC50, intracellular [3H]cAMP (hCB2 receptors [5]; increase of forskolin-stimulated cAMP, mean ± SEM)
CC/C(=C(\c1ccc(O)cc1)c1ccc(OCCNC)cc1)c1ccccc1 [Z-End, 4-hydroxy-N-desmethyl tamoxifen] | surmountable antagonism | 2570 | 1160 | 0.49^†† | 2390 | insurmountable | > 8 | 259 ± 18^b % | 11500 |  |  |  |  |  |  |  | 
CC/C(=C(\c1ccccc1)c1ccc(OCCN(C)C)cc1)c1ccccc1 [E-Tam, tamoxifen] |  |  |  |  |  |  |  | 464 ± 48^a^, ^†† % |  | ER agonist | 49.7 ± 1.5 |  |  |  |  |  | 
CC/C(=C(\c1ccc(O)cc1)c1ccc(OCCN(C)C)cc1)c1ccccc1 [E-4OHT, 4-hydroxytamoxifen] |  |  | 1240 | 1.30 | 957 |  |  | 352 ± 52^a^,^b % | 9120 |  |  | did not significantly alter |  |  |  |  | 
COc1ccc(C(=O)c2c(C)n(CCN3CCOCC3)c3cc(I)ccc23)cc1 [AM-630] |  |  |  |  |  | parallel rightward-shift |  | 214 ± 6.5% | 398 |  | 28.7 |  | 31.7 ± 0.3^a % | 7.26 ± 0.064 | 55 | 55.4 | 6.40 ± 0.096
